pIC50: −log10 of the molar value. Counter-ions that a name gives are not always drawn.

In the experiment the test system is IFN production by activated PBMCs. The experiment can be described thus: IFN production by R848-activated PBMCs from healthy donors, twINNE reporter cell line. It is filed as cell-based, human. The note with it: Homo sapiens, PBMC, means of two results over 2 healthy donors, R848 5 μg/mL, IT1t: mean over all experiments, read-out: IC50 of anti-inflammatory activity (IFN production). Here is the method: 2) The blood from healthy donors was also obtained from “Etablissement Français du Sang” (convention #19/EFS/029), Paris, France.
In vitro experiments were performed using human peripheral blood mononuclear cells (PBMCs) isolated by density centrifugation from peripheral blood leukocyte separation medium, lymphoprep (Stemcell Technologies).
PBMCs were cultured in RPMI 1640 (Sigma-Aldrich, MO, USA) containing 10% heat-inactivated fetal bovine serum (Sigma-Aldrich, MO, USA) at 37° C./5% CO2.
2) The PBMCs used herein were prepared as described in part A “immune cells preparation”, section 2) above. PBMCs were seeded at 4.10^6/mL. […] Cells were then stimulated with the TLR7/8 agonist resiquimod—R848 (Sigma-Aldrich, MO, USA) at 5 μg/mL.
2) To quantify the secretion of functional IFN, a biological assay based on a stable cell line where luciferase reporter gene is controlled by five Interferon-Stimulated Response Elements (twINNE cell line) was used. It is important to note that the twINNE cell line is the same as the above mentioned STING-37 cell line but with constitutively expressed nanoluciferase. First, supernatants of R848-stimulated PBMCs (see part B, section 2) above) were harvested after 24 h of stimulation and frozen at −20° C. for storage. Then, supernatants were dispensed in culture wells of a 96-well plate containing 35.103 twINNE cells per well in Dulbecco's Modified Eagle's Medium supplemented with 10% Foetal Bovine Serum, 100 U/mL Penicillin and 100 μg/mL Streptomycin (1% Pen-Strep) and 1 mM glutamine (Sigma-Aldrich, MO, USA) at 37° C./5% […]. After 24 h of culture, luciferase activity was determined by adding 60 μL of Bright-Go reagents (Promega, Wisconsin, USA) to culture wells and measuring bioluminescence with EnSpire Multimode Plate Reader (PerkinElmer, Massachusetts, USA). When stated, for IC50 calculation, dose-response curves fitted using the nonlin fit (variable slope) analysis in GraphPad Prism software (GraphPad Software, California, USA).
In the case of `c1ccc(CC2CN=C(SCCc3cccnc3)N2)cc1` (centres unmarked) [Example 65, 3-(2-((5-benzyl-4,5-dihydro-1H-imidazol-2-yl)thio)ethyl)pyridine dihydrochloride], the negative-log IC50 (pIC50) was not above 4.51.

For `C1=C(CSC2=NCCN2)N2C(=N[C@H]3CCCCC32)S1` (mixture of isomers) [Example 59, trans-3-(((4,5-dihydro-1H-imidazol-2-yl)thio)methyl)-4a,5,6,7,8,8a-hexahydrobenzo[4,5]imidazo[2,1-b]thiazole dihydrochloride], the pIC50 is not below 5.00.

As for `C1=C(CSC2=NCCN2)N2CCCCN=C2S1` [Example 27, 3-(((4,5-dihydro-1H-imidazol-2-yl)thio)methyl)-5,6,7,8-tetrahydrothiazolo[3,2-a][1,3]diazepine dihydrochloride], the pIC50 is not above 4.51.

Consider `CC1(C)CN2C(CSC3=N[C@H]4COC[C@H]4N3)=CSC2=N1` [Example 25, (3aR,6aS)-2-(((6,6-dimethyl-5,6-dihydroinidazo[2,1-b]thiazol-3-yl)methyl)thio)-3a,4,6,6a-tetrahydro-1H-furo[3,4-d]imidazole dihydrochloride], for which the pIC50 is not above 4.51.

Consider `C1=C(CSC2=N[C@@H]3CCCC[C@H]3N2)N2CCCN=C2S1` [Example 45, 3-((((3aR,7aR)-3a,4,5,6,7,7a-hexahydro-1H-benzo[d]imidazol-2-yl)thio)methyl)-6,7-dihydro-5H-thiazolo[3,2-a]pyrimidine dihydrochloride], for which the pIC50 is not above 4.51.

With `CC1(C)CN=C(SCCn2ccnc2)N1` [Example 47, 1-(2-((5,5-dimethyl-4,5-dihydro-1H-imidazol-2-yl)thio)ethyl)-1H-imidazole dihydrochloride], the pIC50 was not above 4.51.

Take `CN1CCCN=C1SCC1=CSC2=NC(C)(C)CN12` [Example 57, 6,6-dimethyl-3-(((1-methyl-1,4,5,6-tetrahydropyrimidin-2-yl)thio)methyl)-5,6-dihydroimidazo[2,1-b]thiazole dihydrochloride]: the pIC50 was not above 4.51.

For `CC1(C)CN=C2SC=C(CSC3=NCC(C)(C)N3)N2C1` [Example 34, 3-(((5,5-dimethyl-4,5-dihydro-1H-imidazol-2-yl)thio)methyl)-6,6-dimethyl-6,7-dihydro-5H-thiazolo[3,2-a]pyrimidine dihydrochloride], the negative logarithm of the IC50 (pIC50) is not above 4.51.

For `CC1(C)CN=C(SCC2=CSC3=N[C@H]4CCCC(C4)N23)N1` (racemic) [Example 23, cis-3-(((5,5-dimethyl-4,5-dihydro-1H-imidazol-2-yl)thio)methyl)-6,7,8,9-tetrahydro-5H-5,9-methanothiazolo[3,2-a][1,3]diazocine dihydrochloride], the negative-log IC50 (pIC50) was not above 4.51.

In the case of `C1=C(CSC2=NCC(Cc3ccccc3)N2)N2CC(Cc3ccccc3)N=C2S1` (centres unmarked) [Example 60, 6-benzyl-3-(((5-benzyl-4,5-dihydro-1H-imidazol-2-yl)thio)methyl)-5,6-dihydroimidazo[2,1-b]thiazole dihydrochloride], the pIC50 is not below 5.00.

As for `CC1(C)CN2C(CSC3=N[C@@H]4CCCC[C@@H]4N3)=CSC2=N1` [Example 5, 3-((((3R,7aS)-3a,4,5,6,7,7a-hexahydro-1H-benzo[d]imidazol-2-yl)thio)methyl)-6,6-dimethyl-5,6-dihydroimidazo[2,1-b]thiazole dihydrochloride], the pIC50 is 4.51 to 5.00.

As to `CC1(C)CN2C(CSC3=NCC4(CCCCC4)N3)=CSC2=N1` [Example 39, 3-(((1,3-diazaspiro[4.5]dec-2-en-2-yl)thio)methyl)-6,6-dimethyl-5,6-dihydroimidazo[2,1-b]thiazole dihydrochloride], the pIC50 is 4.51 to 5.00.

Turning to `CC1(C)CN=C(SCC2=CSC3=NC4(CC4)CN23)N1` [Example 33, dihydrochloride], the negative logarithm of the IC50 (pIC50) was not above 4.51.

Consider `CCCCC1CN2C(CSC3=NCC(C)(C)N3)=CSC2=N1` (centres unmarked) [Example 19, 6-butyl-3-(((4,4-dimethyl-4,5-dihydro-1H-imidazol-2-yl)thio)methyl)-5,6-dihydroinidazo[2,1-b]thiazole dihydrochloride], for which the pIC50 is 4.51 to 5.00.

For `C1=C(CSC2=N[C@H]3CCCC[C@@H]3N2)N2C(=N[C@H]3CCCCC32)S1` (mixture of isomers) [Example 56, trans-3-((((3aS,7aS)-3a,4,5,6,7,7a-hexahydro-1H-benzo[d]imidazol-2-yl)thio)methyl)-4a,5,6,7,8,8a-hexahydrobenzo[4,5]imidazo[2,1-b]thiazole dihydrochloride], the pIC50 is not below 5.00.

Regarding `CC1(C)CN2C(CSC3=N[C@@H]4CCC[C@@H](C4)N3)=CSC2=N1` [Example 22, 3-((((1R,5S)-2,4-diazabicyclo[3.3.1]non-2-en-3-yl)thio)methyl)-6,6-dimethyl-5,6-dihydroimidazo[2,1-b]thiazole dihydrochloride], the negative-log IC50 (pIC50) is not above 4.51.

As to `CC1(C)CN2C(CSC3=NCCCCN3)=CSC2=N1` [Example 12, 6,6-dimethyl-3-(((4,5,6,7-tetrahydro-1H-1,3-diazepin-2-yl)thio)methyl)-5,6-dihydroimidazo[2,1-b]thiazole dihydrochloride], the negative logarithm of the IC50 (pIC50) was not above 4.51.

Consider `CC1(C)CN2C(CSC3=NC(C)(C)C(C)(C)N3)=CSC2=N1` [Example 16, 6,6-dimethyl-3-(((4,4,5,5-tetramethyl-4,5-dihydro-1H-imidazol-2-yl)thio)methyl)-5,6-dihydroimidazo[2,1-b]thiazole dihydrochloride], for which the pIC50 was not above 4.51.

Turning to `CC1(C)CN2C(=N1)SC(I)=C2CSC1=NCC(C)(C)N1` [Example 66, 3-(((5,5-dimethyl-4,5-dihydro-1H-imidazol-2-yl)thio)methyl)-2-iodo-6,6-dimethyl-5,6-dihydroimidazo[2,1-b]thiazole dihydrochloride], the negative-log IC50 (pIC50) is not below 5.00.

Consider `C1=C(CSC2=N[C@H]3COC[C@H]3N2)N2C(=N[C@@H]3COC[C@@H]32)S1` (mixture of isomers) [Example 36, mixture of (4aS,7aR)-3-((((3aS,6aR)-3a,4,6,6a-tetrahydro-1H-furo[3,4-d]imidazol-2-yl)thio)methyl)-4a,5,7,7a-tetrahydrofuro[3′,4′:4,5]imidazo[2,1-b]thiazole dihydrochloride and (4aR,7aS)-3-((((3aR,6aS)-3a,4,6,6a-tetrahydro-1H-furo[3,4-d]imidazol-2-yl)thio)methyl)-4a,5,7,7a-tetrahydrofuro[3′,4′: 4,5]imidazo[2,1-b]thiazole dihydrochloride], for which the pIC50 was not above 4.51.

As for `C1=C(CSC2=N[C@@H]3CCCC[C@H]3N2)N2CCCCN=C2S1` [Example 46, 3-((((3aR,7aR)-3a,4,5,6,7,7a-hexahydro-1H-benzo[d]imidazol-2-yl)thio)methyl)-5,6,7,8-tetrahydrothiazolo[3,2-a][1,3]diazepine dihydrochloride], the pIC50 is not above 4.51.

For `CC1(C)CN2C(CSC3=NCCN3)=CSC2=N1` [Example 8, 3-(((4,5-dihydro-1H-imidazol-2-yl)thio)methyl)-6,6-dimethyl-5,6-dihydroimidazo[2,1-b]thiazole dihydrochloride], the pIC50 is 4.51 to 5.00.

With `CC1(C)CN2C(CSC3=NCC4(CC4)N3)=CSC2=N1` [Example 24, 3-(((4,6-diazaspiro[2.4]hept-5-en-5-yl)thio)methyl)-6,6-dimethyl-5,6-dihydroimidazo[2,1-b]thiazole dihydrochloride], the pIC50 is 4.51 to 5.00.

Values taken from patent US20220144853A1, “IMIDAZOLINE DERIVATIVES AS CXCR4 MODULATORS” (Université de Paris, priority 2019, published 2022).
